Test results from patent US20240043404A1 (AbbVie Inc., priority 2009, published 2024).
pEC50: −log10 of the molar value.

test system: RS4;11 cells; assay: RS4;11 cell viability assay (CellTiter Glo); format: cell-based, human; conditions: Homo sapiens, RS4-11, 48 h, 50,000 cells per well, 10% human serum, 48 hours; read-out: RS4; 11 EC50 Values;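 also: acute lymphoblastic leukemia line RS4,11, EC50 derived from percentage of viable cells after treatment relative to untreated controls, cell killing taken as a measure of Bcl-2 inhibition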
Method: The acute lymphoblastic leukemia (ALL) cell line RS4;11 was used as the primary human cell line to assess the cellular activity of Bcl-2 selective agents in vitro and their efficacy in vivo.
Cell cytotoxicity EC50 values were assessed using CellTiter Glo (Promega) according to the manufacturer's recommendations. The EC50 values were determined as a percentage of viable cells following treatment compared to the untreated control cells.

pEC50	Compound
6.52	CC1(C)CCCC(c2ccc(Cl)cc2)=C1CN1CCN(c2ccc(C(=O)NS(=O)(=O)c3ccc(NCC4CCOCC4)c([N+](=O)[O-])c3)c(Oc3cnc4[nH]ccc4c3)c2)CC1 [Example 101, 4-(4-{[2-(4-chlorophenyl)-6,6-dimethylcyclohex-1-en-1-yl]methyl}piperazin-1-yl)-N-({3-nitro-4-[(tetrahydro-2H-pyran-4-ylmethyl)amino]phenyl}sulfonyl)-2-(1H-pyrrolo[2,3-b]pyridin-5-yloxy)benzamide]
6.21	CCN1CCOCC1COc1ncc(S(=O)(=O)NC(=O)c2ccc(N3CCN(CC4=C(c5ccc(Cl)cc5)CC(C)(C)CC4)CC3)cc2Oc2cnc3[nH]ccc3c2)cc1Br (stereo not shown) [Example 102, N-({5-bromo-6-[(4-ethylmorpholin-3-yl)methoxy]pyridin-3-yl}sulfonyl)-4-(4-{[2-(4-chlorophenyl)-4,4-dimethylcyclohex-1-en-1-yl]methyl}piperazin-1-yl)-2-(1H-pyrrolo[2,3-b]pyridin-5-yloxy)benzamide]
7.41	CCN1CCOCC1COc1ccc(S(=O)(=O)NC(=O)c2ccc(N3CCN(CC4=C(c5ccc(Cl)cc5)CC(C)(C)CC4)CC3)cc2Oc2cnc3[nH]ccc3c2)cc1[N+](=O)[O-] (stereo not shown) [Example 103, 4-(4-{[2-(4-chlorophenyl)-4,4-dimethylcyclohex-1-en-1-yl]methyl}piperazin-1-yl)-N-({4-[(4-ethylmorpholin-3-yl)methoxy]-3-nitrophenyl}sulfonyl)-2-(1H-pyrrolo[2,3-b]pyridin-5-yloxy)benzamide]
7.15	CC1(C)CCC(CN2CCN(c3ccc(C(=O)NS(=O)(=O)c4ccc(OCC5COCCN5C5CCOCC5)c([N+](=O)[O-])c4)c(Oc4cnc5[nH]ccc5c4)c3)CC2)=C(c2ccc(Cl)cc2)C1 (stereo not shown) [Example 104, 4-(4-{[2-(4-chlorophenyl)-4,4-dimethylcyclohex-1-en-1-yl]methyl}piperazin-1-yl)-N-({3-nitro-4-[(4-tetrahydro-2H-pyran-4-ylmorpholin-3-yl)methoxy]phenyl}sulfonyl)-2-(1H-pyrrolo[2,3-b]pyridin-5-yloxy)benzamide]
7.27	CC1(C)CCC(CN2CCN(c3ccc(C(=O)NS(=O)(=O)c4ccc(N[C@H]5CCCN(C6CCOCC6)C5)c([N+](=O)[O-])c4)c(Oc4cnc5[nH]ccc5c4)c3)CC2)=C(c2ccc(Cl)cc2)C1 [Example 105, 4-(4-{[2-(4-chlorophenyl)-4,4-dimethylcyclohex-1-en-1-yl]methyl}piperazin-1-yl)-N-[(3-nitro-4-{[(3S)-1-tetrahydro-2H-pyran-4-ylpiperidin-3-yl]amino}phenyl)sulfonyl]-2-(1H-pyrrolo[2,3-b]pyridin-5-yloxy)benzamide]
6.08	CC1(C)CCC(CN2CCN(c3ccc(C(=O)NS(=O)(=O)c4cnc(NCC5CCOCC5)c(C#N)c4)c(Oc4cnc5[nH]ccc5c4)c3)CC2)=C(c2ccc(Cl)cc2)C1 [Example 106, 4-(4-{[2-(4-chlorophenyl)-4,4-dimethylcyclohex-1-en-1-yl]methyl}piperazin-1-yl)-N-({5-cyano-6-[(tetrahydro-2H-pyran-4-ylmethyl)amino]pyridin-3-yl}sulfonyl)-2-(1H-pyrrolo[2,3-b]pyridin-5-yloxy)benzamide]
7.62	CC1(C)CCC(CN2CCN(c3ccc(C(=O)NS(=O)(=O)c4ccc(NCC5(N)CCOCC5)c([N+](=O)[O-])c4)c(Oc4cnc5[nH]ccc5c4)c3)CC2)=C(c2ccc(Cl)cc2)C1 [Example 108, N-[(4-{[(4-aminotetrahydro-2H-pyran-4-yl)methyl]amino}-3-nitrophenyl)sulfonyl]-4-(4-{[2-(4-chlorophenyl)-4,4-dimethylcyclohex-1-en-1-yl]methyl}piperazin-1-yl)-2-(1H-pyrrolo[2,3-b]pyridin-5-yloxy)benzamide]
